Experimental data: EP0346132A1, “Pharmaceutical products” (priority 1988, dated 1989)
In brackets after ≈: the same amount, converted by molar mass. Entries after “also recorded” stand apart in the source; their conditions may differ. Where two headings read alike, the source gives them in different places. Values belong to the molecule of their own block, whether it stands above or below them.

Key:
[1] = test system: HIV; assay: Anti-HIV assay (protection of infected cells, XTT microculture tetrazolium assay); type: cell-based; details: for inhibit the infection and killing of human T lymphocytes (Th cells) by HIV / activity against HIV: statement in words; for activity against HIV: in vitro
Excerpt: (§1) Compound 14a was screened for anti-HIV activity at the National Cancer Institute, Frederick Cancer Research Facility, Frederick, Maryland (FCRF). The screening mode operational procedures utilized at FCRF are set forth in detail in U.S. patent application Serial No. 07/146,252, filed January 20, 1988, the disclosure of which is incorporated by reference herein.
(§2) Figure 2 depicts a plot of the percentage of test cells over uninfected cells (%) for both infected and uninfected cells as a function of the increasing concentration of compound 14a.
(§3) The data plotted on Figure 2 permit the calculation of an effective concentration (EC₅₀) with respect to infected cells of about 0.15 µg/ml, an inhibitory concentration (IC₅₀) with respect to normal cells of about 100 µg/ml, and a therapeutic index (TI₅₀) of about 667. An earlier assay carried out at the Southern Research Institute yielded a TI₅₀ of about 200 when MT-2 cells were cultured with H9/HTLV-IIIB.
The following are the current screening mode operational procedures utilized at Southern Research Institute, Birmingham, AL. The procedure consists of 3 operations: 1) preparation of infected cells and distribution of the test plates; 2) preparation of drug dilution plates and distribution to the test plates; and 3) XTT assay procedure.
(§4) Cells to be treated in 50 ml conical centrifuge tubes for 30 minutes with 1-2 µg/ml of polybrene at 37°C, and pelleted (8 min., 1200 RPM). Virus is added [in RMPI-1640, 10% fetal calf serum (FCS), with interleukin-2 (IL-2) (for ATH8 cells), and antibiotics] to provide an MOI of approximately 0.01. An MOI of 0.01 is obtained by adding 10³ infectious units of virus to 10⁵ cells. Medium alone is added to virus-free control cells. The treated or control cells are incubated for 1 hour at 37°C in 5% CO₂ in air. Infected or uninfected cells are diluted to give 1 x 10⁴ cells/100 µl (2 x 10⁴ cells/100 µl for ATH8 cells). Infected or uninfected cells (100 µl) are distributed to appropriate wells of a 96 well, U-bottom, microtiter plate. Each compound dilution is tested in duplicate with infected cells. Uninfected cells are examined for drug sensitivity in a single well for each dilution of compound. Drug free control cells, infected and uninfected, are run in triplicate in wells B3 through D3 and E3 through G3, respectively. Wells A4 through A11 and H4 through H11 are drug blanks and get medium alone at this point. The plates are then incubated at 37°C in 5% CO₂ until ready for drug addition.
The first dilution of each drug is made in a test tube according to the dilution specified hereinbelow. The remaining dilutions are made in 96-well plates. All wells of each plate are filled with 225 µl of medium using a Cetus liquid handling system programed according to the plate filling worksheet. Twenty-five microliters (25 µl) of 2 diluted compounds are manually added to row 11 of a filled dilution plate in the same order in which the drugs will appear on the test plate. The two compounds are then serially diluted 10 fold from row 11 through row 4, using the Cetus liquid handling system, preprogramed with the serial dilution file worksheet.
Using a multi-channel pipettor with […], 100 µl of each drug dilution is transferred to the test plate; 100 µl from wells A4 through H4 of the dilution plate to the same wells of the test plate. Wells B3 through G3 and B2 through G2 receive medium alone.
Test plates are incubated at 37°C in 5% CO₂ in air for 7 days or until virus control cells are lysed as determined microscopically.
An XTT-PMS solution is prepared immediately prior to its addition to the wells of the culture dish [1 mg/ml XTT; 2,3-bis(2-methoxy-4-nitro-5-sulfophenyl)-5-(phenylamino)carbonyl-2H-tetrazolium hydroxide solution in media without FCS]. The stock PMS (phenazine methosulfate (15.3 mg PMS/ml FBS)) solution is diluted 1:100 (0.153 mg/ml). […]

[2] = Anti-HIV assay, toxicity to uninfected (normal) cells, MT-2; type: cell-based; details: human, mt-2 cells, ID₅₀
Excerpt: as §1, §2, §3, §4

[3] = test system: P-388 Leukemia Cells; assay: P-388 mouse leukemia cell culture cytotoxicity assay; type: cell-based; details: P388, inhibitory (cytotoxicity) concentration for P-388 leukemia cells in culture, read-out: ED₅₀
Excerpt: The ED₅₀ cytotoxicity concentrations determined for analogs 7a, 9a, 10a, 16a, and 17a in the P-388 mouse leukemia cell culture assay are given in Table II.

[4] = test system: MT-2; assay: Anti-HIV assay, toxicity to uninfected (normal) cells, MT-2; type: cell-based; details: Homo sapiens, MT2; Figure 2; screened at FCRF; normal cells; read-out: inhibitory concentration (IC₅₀) with respect to normal cells
Excerpt: as §1, §2, §3, §4

[5] = test system: HSV-1; assay: Activity against Herpes Simplex Virus Type 1; details: statement in words
[6] = Anti-HIV assay, toxicity to uninfected (normal) cells, ATH-8; type: cell-based; details: human, ath-8 cells; first ID₅₀ column (c2); Cell Line ATH-8
Excerpt: as §1, §3
(§5) Cells to be treated in 50 ml conical centrifuge tubes for 30 minutes with 1-2 µg/ml of polybrene at 37°C, and pelleted (8 min., 1200 RPM). Virus is added [in RMPI-1640, 10% fetal calf serum (FCS), with interleukin-2 (IL-2) (for ATH8 cells), and antibiotics] to provide an MOI of approximately 0.01. An MOI of 0.01 is obtained by adding 10³ infectious units of virus to 10⁵ cells. Medium alone is added to virus-free control cells. The treated or control cells are incubated for 1 hour at 37°C in 5% CO₂ in air. […] The plates are then incubated at 37°C in 5% CO₂ until ready for drug addition.

[7] = Anti-HIV assay, toxicity to uninfected (normal) cells, MT-2C; type: cell-based; details: human, mt-2c cells
Excerpt: as §1, §3, §5

[8] = Anti-HIV assay, toxicity to uninfected (normal) cells, CEM-C; type: cell-based; details: human, first ID₅₀ column (c2), Cell Line CEM-C
Excerpt: as §1, §3, §5

[9] = test system: HIV; details: background and literature; statement in words; cited from earlier work
[10] = test system: HIV; details: early clinical trials; statement in words; cited from earlier work
[11] = Human immunodeficiency virus 1, Cell Line MT-2, read-out: ED₅₀
[12] = Human immunodeficiency virus 1, Cell Line MT-2C, read-out: ED₅₀

SMILES: CC(=O)OC[C@@H]1C=C[C@H](n2cnc3c(=O)[nH]c(N)nc32)C1 (racemic) [1α-acetate ester of 14a, (1α,2α)-4-(2-Amino-6-hydroxy-9H-purin-9-yl)-2-cyclopentenyl Acetoxycarbinol]
inhibition at 6 µg/mL ([1]; Human immunodeficiency virus 1, against HIV at 6 µg/ml): 28%

SMILES: Nc1c(Cl)ncnc1N[C@H]1C=C[C@@H](CO)C1 (racemic) [Compound 3a, (±)-(1α,4α)-4-[(5-Amino-6-chloro-4-pyrimidinyl)-amino]-2-cyclopentenylcarbinol]
inhibit the infection and killing of human T lymphocytes (Th cells) by HIV [1]: effective

SMILES: Nc1c(Cl)ncnc1N[C@H]1CC[C@@H](CO)C1 (racemic) [Compound 3b]
inhibit the infection and killing of human T lymphocytes (Th cells) by HIV [1]: effective

SMILES: Nc1nc(Cl)cc(N[C@H]2C=C[C@@H](CO)C2)n1 (racemic) [Compound 4a, (±)-(1α,4α)-4-[(2-Amino-6-chloro-4-pyrimidinyl)-amino]-2-cyclopentenylcarbinol]
inhibit the infection and killing of human T lymphocytes (Th cells) by HIV [1]: effective

SMILES: Nc1nc(Cl)cc(N[C@H]2CC[C@@H](CO)C2)n1 (racemic) [Compound 4b]
inhibit the infection and killing of human T lymphocytes (Th cells) by HIV [1]: effective

SMILES: Nc1nc(Cl)c(N=Nc2ccc(Cl)cc2)c(N[C@H]2C=C[C@@H](CO)C2)n1 (racemic) [Compound 5a, (±)-(1α,4α)-4-{[2-Amino-6-chloro-5-(4-chlorophenyl)-azo]-4-pyrimidinyl]-amino}-2-cyclopentenylcarbinol]
inhibit the infection and killing of human T lymphocytes (Th cells) by HIV [1]: effective

SMILES: Nc1nc(Cl)c(N)c(N[C@H]2C=C[C@@H](CO)C2)n1 (racemic) [Compound 6a, (±)-(1α,4α)-4-[(2,5-Diamino-6-chloro-4-pyrimidinylamino]-2 cyclopentenylcarbinol]
inhibit the infection and killing of human T lymphocytes (Th cells) by HIV [1]: effective

SMILES: OC[C@@H]1C=C[C@H](n2cnc3c(Cl)ncnc32)C1 (racemic) [Compound 7a, (±)-(1α,4α)-4-(6-chloro-9H-purin-9-yl)-2-cyclopentenylcarbinol]
CC50 [2]: 58.5 µg/mL (≈ 233 µM) | activity against HIV [1]: active | inhibit the infection and killing of human T lymphocytes (Th cells) by HIV [1]: effective | IC50 [3]: 12 µg/mL (≈ 47.9 µM)

SMILES: O=c1[nH]cnc2c1ncn2[C@H]1C=C[C@@H](CO)C1 (racemic) [Compound 8a, (±)-(1α,4α)-4-(6-Hydroxy-9H-purin-9-yl)-2-cyclopentenylcarbinol]
inhibit the infection and killing of human T lymphocytes (Th cells) by HIV [1]: effective

EC50 [1, 11]: 2.3 µg/mL (≈ 9.95 µM)
SMILES: Nc1ncnc2c1ncn2[C@H]1C=C[C@@H](CO)C1 (racemic) [Compound 9a, (±)-(1α,4α)-4-(6-Amino-9H-purin-9-yl)-2-cyclopentenylcarbinol]
CC50 [2]: 50 µg/mL (≈ 216 µM) | activity against HIV [1]: active | inhibit the infection and killing of human T lymphocytes (Th cells) by HIV [1]: effective | IC50 [3]: 40 µg/mL (≈ 173 µM)

SMILES: OC[C@@H]1C=C[C@H](n2cnc3c(S)ncnc32)C1 (racemic) [Compound 10a, (±)-(1α,4α)-4-(6-Mercapto-9H-purin-9-yl)-2-cyclopentenylcarbinol]
CC50 [2]: 7.33 µg/mL (≈ 29.5 µM) | activity against HIV [1]: active | inhibit the infection and killing of human T lymphocytes (Th cells) by HIV [1]: effective | IC50 [3]: 3 µg/mL (≈ 12.1 µM)

EC50 [1, 11]: 0.41 µg/mL (≈ 1.54 µM)
SMILES: Nc1nc(Cl)c2ncn([C@H]3C=C[C@@H](CO)C3)c2n1 (racemic) [Compound 13a, (±)-(1α,4α)-4-(2-Amino-6-chloro-9H-purin-9-yl)-2-cyclopentenyl carbinol]
CC50 [2]: 6.97 µg/mL (≈ 26.2 µM) | activity against HIV [1]: active | inhibit the infection and killing of human T lymphocytes (Th cells) by HIV [1]: effective

EC50 ([1]; Human immunodeficiency virus 1, ATH-8, Cell Line ATH-8, read-out: ED₅₀): 0.2 µg/mL (≈ 0.809 µM) | EC50 ([1]; Human immunodeficiency virus 1, Figure 2, screened at FCRF, read-out: effective concentration (EC₅₀) with respect to infected cells): ~0.15 µg/mL (≈ 0.607 µM)
SMILES: Nc1nc2c(ncn2[C@H]2C=C[C@@H](CO)C2)c(=O)[nH]1 (racemic) [Compound 14a, (±)-(1α,4α)-4-(2-Amino-6-hydroxy-9H-purin-9-yl)-2-cyclopentenyl carbinol]
IC50 [4]: ~100 µg/mL (≈ 404 µM) | active against HSV-1 [5]: active | therapeutic index (TI₅₀) ([1]; Figure 2, screened at FCRF): about 667 | TI₅₀ ([1]; earlier assay at Southern Research Institute, MT-2 cells cultured with H9/HTLV-IIIB): about 200 | activity against HIV [1]: strongly inhibits HIV infectivity in vitro | inhibit the infection and killing of human T lymphocytes (Th cells) by HIV [1]: effective | CC50 [6]: 55.3 µg/mL (≈ 224 µM)

EC50 [1, 12]: 1.9 µg/mL (≈ 7.71 µM)
SMILES: Nc1nc(N)c2ncn([C@H]3C=C[C@@H](CO)C3)c2n1 (racemic) [Compound 15a, (±)-(1α,4α)-4-(2,6-Diamino-9H-purin-9-yl)-2-cyclopentenylcarbinol]
CC50 [7]: > 125 µg/mL | activity against HIV [1]: active | inhibit the infection and killing of human T lymphocytes (Th cells) by HIV [1]: effective

SMILES: Nc1nc(Cl)c2nnn([C@H]3C=C[C@@H](CO)C3)c2n1 (racemic) [Compound 16a]
IC50 [3]: 1 µg/mL (≈ 3.75 µM)

SMILES: Nc1nc2c(nnn2[C@H]2C=C[C@@H](CO)C2)c(=O)[nH]1 (racemic) [Compound 17a]
IC50 [3]: 4.5 µg/mL (≈ 18.1 µM)

EC50 [1, 12]: 0.325 µg/mL (≈ 1.31 µM)
SMILES: Nc1nc(O)c2ncn([C@H]3C=C[C@@H](CO)C3)c2n1 [(-)14a, (1S,4R)-4-(2-Amino-6-hydroxy-9H-Purin-9-yl)-2-cyclopentenyl Carbinol]
CC50 ([7]; first ID₅₀ column (c2), Cell Line MT-2C, read-out: ID₅₀): 135 µg/mL (≈ 546 µM) | CC50 [8]: 189 µg/mL (≈ 764 µM) | activity against HIV [1]: highly active

SMILES: [N-]=[N+]=N[C@H]1C[C@H](n2ccc(=O)[nH]c2=O)O[C@@H]1CO [CS-87, 3′-azido-2′,3′-dideoxyuridine]
activity against HIV in vitro [9]: significant activity against HIV in vitro; also recorded: significantly inhibit HIV replication in vitro

SMILES: NC(=O)c1ncn([C@@H]2O[C@H](CO)[C@@H](O)[C@H]2O)n1 [Ribavirin, 1-β-D-Ribofuranosyl-1H-1,2,4-triazole-3-carboxamide]
effect in AIDS patients [10]: inhibited viral replication

SMILES: Cc1cn([C@H]2C=C[C@@H](CO)O2)c(=O)[nH]c1=O [d4T, 2′,3′-dideoxy-2′,3′-didehydrothymidine]
activity against HIV in vitro [9]: potent inhibitor of HIV replication in vitro

SMILES: OC[C@@H]1CC[C@H](n2cnc3c(O)ncnc32)O1 [ddI, 2′,3′-Dideoxyinosine]
activity against HIV in vitro [9]: inhibit HIV-induced cytopathic effects in vitro; also recorded: significant antiviral activity against HIV in vitro
